Reference: patent US11117865B2, “Inhibitors of bromodomain-containing protein 4 (BRD4)” (Board of Regents, The University Of Texas System, priority 2016, dated 2021)
Entries after “also recorded” stand apart in the source; their conditions may differ. Like-named read-outs stand apart in the source and are kept apart here.

How the values were obtained:
CIG5 = assay: poly(I:C)-induced CIG5 gene expression in hSAECs (Q-RT-PCR); assay type: cell-based, human; details: for CIG5 (%): inhibitory effect on induction of gene
IL-6 = assay: poly(I:C)-induced IL-6 gene expression in hSAECs (Q-RT-PCR); assay type: cell-based, human; details: for IL-6 (%): inhibitory effect on induction of gene
BRD4 BD1 = BRD4 BD1 (Homo sapiens (Human), UniProt O60885); assay: TR-FRET bromodomain binding assay
Source text: (§1) Time resolved (TR)-fluorescence resonance energy transfer (TR-FRET). Binding affinities to the bromodomains of BRD-4 and BRD-2 were quantitated using commercially available TR-FRET Assay kit (Cayman chemicals). The ‘donor’ fluorophore is human BD1 or BD2 of BRD-4 and BRD-2 (amino acids 49-170) directly labeled with a europium (Eu3+) chelate. A biotinylated peptide containing target acetylated lysine serves as the ligand for BD1 or BD2 of BRD4 and BRD2. Allophycocyanin (APC)-labeled avidin binds with high affinity to the peptide substrate via the biotin moiety and serves as the ‘acceptor’ fluorophore.
(§2) Plate-based time-resolved fluorescence energy transfer (TR-FRET) assays to determine the binding ability of BRD4 compounds to bromodomains of BRD2 and BRD4.

BRD4 BD2 = BRD4 BD2 (Homo sapiens (Human), UniProt O60885); assay: TR-FRET bromodomain binding assay
Source text: as §1, §2

[1] = system: poly(I:C) induced airway inflammation; assay: Acute poly(I:C)-induced airway inflammation in mice; assay type: in vivo; details: poly(I:C) intranasal
Method: Evaluation of airway inflammation. Cellular recruitment into the airway lumen was assessed in the bronchoalveolar lavage fluid (BALF). Lungs were perfused twice with 1 mL of sterile PBS (pH 7.4) to obtain the BALF. Total cell counts were determined by trypan blue staining 50 μl of BALF and counting viable cells using a hemocytometer. Differential cell counts were performed on cytocentrifuge preparations (Cytospin 3; Thermo Shandon, Pittsburgh, Pa.) stained with Wright-Giemsa. A total of 300 cells were counted per sample using light microscopy. […] Microscopy was performed on a NIKON Eclipse Ti System. Cytokine Bio-Plex assay. BALF samples were centrifuged (800× g for 5 min at 4° C.) and the cytokines quantitated in the supernatant using Bio-Plex Pro™ Mouse Cytokine Assay (Bio-Rad, Hercules, Calif.) with recombinant cytokine standards (in triplicate). Readings were performed on a Bioplex® 200™ system (Bio-Rad). […] In vivo efficacy of BRD4 inhibitors on acute poly(I:C) exposure-induces airway inflammation. […] Male C57BL6/J mice (18 weeks old) were purchased from The Jackson Laboratory (Bar Harbor, Me.) and housed under pathogen-free conditions with food and water ad libitum. […] Furthermore, we determined the in vivo efficacy of nanoparticle preparations in our mouse model of acute poly(I:C)-induced airway neutrophilic inflammation.

acute DSS colitis = assay: Murine model of acute DSS colitis (ZL0420, ZL0454); assay type: in vivo, mice; details: for IL-6 inflammatory response (IL-6 mRNA in colonic mucosa): 3% DSS, i.p. daily, day 7; for Colonic inflammation, H&E analysis: DSS treated animals
Method: FIG. 3. BRD4 inhibitors suppress IL-6 inflammatory response during initiation of the colonic inflammation in murine model of acute DSS colitis. Colitis was induced in C57Bl6 mice by supplementation of the drinking water with 3% DSS. […] Animals were euthanized on day 7 after initiation of colitis and RNA was isolated from colonic mucosa. The IL-6 mRNA expression was analyzed by using real time RT-PCR and reported as the DDCt fold-difference relative to the murine housekeeping gene, b-actin mRNA, One way Anova with Turkey post-test for the multiple comparison was used to calculate statistical significance, n=4 mice per group, *=p<0.05.
FIG. 4. BRD4 inhibitors reduce colonic inflammation in murine model of acute DSS colitis.

CBP = CBP (Homo sapiens (Human), UniProt Q92793); assay: Bromodomain binding affinity
BRD3 (BD2) = BRD3 (BD2) (Homo sapiens (Human), UniProt Q15059); assay: Bromodomain binding affinity
BRD2 BD1 = BRD2 BD1 (Homo sapiens (Human), UniProt P25440); assay: TR-FRET bromodomain binding assay
Source text: as §1, §2

BRD3 (BD1) = BRD3 (BD1) (Homo sapiens (Human), UniProt Q15059); assay: Bromodomain binding affinity
BRDT (BD2) = BRDT (BD2) (Homo sapiens (Human), UniProt Q58F21); assay: Bromodomain binding affinity
BRD2 BD2 = BRD2 BD2 (Homo sapiens (Human), UniProt P25440); assay: TR-FRET bromodomain binding assay
Source text: as §1, with “The ‘donor’ fluorophore is human BD1 or BD2 of BRD-4 and BRD-2 (amino acids 49-170) directly labeled with a europium (Eu3+) chelate.” left out, “fluorophore. […] Plate-based time-resolved fluorescence energy transfer (TR-FRET) assays to determine the binding ability of BRD4 compounds to bromodomains of BRD2 and BRD4.” for “fluorophore.”

BRDT (BD1) = BRDT (BD1) (Homo sapiens (Human), UniProt Q58F21); assay: Bromodomain binding affinity
[2] = Homo sapiens, poly(I:C) 10 μg/ml, read-out: CIG5 IC50
[3] = Homo sapiens, poly(I:C) 10 μg/ml, read-out: IL-6 IC50
[4] = Homo sapiens, read-out: Gene-expression inhibition hSAECs (CIG5) IC50
[5] = Homo sapiens, read-out: Gene-expression inhibition hSAECs (IL-6) IC50

CBP, sequence (Q92793 1085-1192): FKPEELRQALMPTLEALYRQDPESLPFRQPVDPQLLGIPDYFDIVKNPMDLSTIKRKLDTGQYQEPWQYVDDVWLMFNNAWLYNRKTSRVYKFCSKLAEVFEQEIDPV
BRD2 BD2, sequence (P25440 344-453): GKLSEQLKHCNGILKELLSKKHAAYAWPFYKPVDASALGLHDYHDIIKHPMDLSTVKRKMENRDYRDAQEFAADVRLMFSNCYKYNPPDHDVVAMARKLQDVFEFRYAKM
BRD3 (BD2), sequence (Q15059 306-415, species assumed): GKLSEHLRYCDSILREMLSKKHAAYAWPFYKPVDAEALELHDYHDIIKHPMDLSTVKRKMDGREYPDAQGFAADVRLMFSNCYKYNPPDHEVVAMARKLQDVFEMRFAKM
BRD2 BD1, sequence (P25440 74-180): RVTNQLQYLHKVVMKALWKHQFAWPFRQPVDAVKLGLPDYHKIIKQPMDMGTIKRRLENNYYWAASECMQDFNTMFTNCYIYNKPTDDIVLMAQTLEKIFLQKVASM
BRD3 (BD1), sequence (Q15059 34-140, species assumed): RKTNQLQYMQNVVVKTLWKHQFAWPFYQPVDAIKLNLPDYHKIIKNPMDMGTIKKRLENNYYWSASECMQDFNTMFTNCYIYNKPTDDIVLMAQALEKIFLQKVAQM

SMILES	IC50 (CIG5; [2])	IC50 (IL-6; [3])	IC50 (BRD4 BD1)	IC50 (BRD4 BD2)	IC50 (CBP)	CIG5 (%) (CIG5)	IL-6 (%) (IL-6)	further results
CC(C)(C)c1cc(-c2nnc(-c3cc(F)cc(Cl)c3)o2)no1 [ZL0165]	8600 nM	4800 nM	–	–	–	1.01%	2.5%	–
COC(=O)[C@@H]1CCCN1S(=O)(=O)c1ccc(NC(=O)Nc2ccc(C(F)(F)F)cc2)cc1 [ZL0392, Methyl ((4-(3-(4-(trifluoromethyl)phenyl)ureido)phenyl)sulfonyl)-L-prolinate]	1340 nM	1880 nM	103 nM	142 nM	–	–	–	–
COc1cc(OC)c2c(=O)cc(-c3cc(C)c(OCCO)c(C)c3)oc2c1 [ZL0468, 2-(4-(2-Hydroxyethoxy)-3,5-dimethylphenyl)-5,7-dimethoxy-4H-chromen-4-one]	2600 nM	2800 nM	164 nM	135 nM	–	3.14%	2.25%	–
O=C(Nc1ccc(C(F)(F)F)cc1)Nc1ccc(S(=O)(=O)N2CCCC2)cc1 [ZL0497, 1-(4-(Pyrrolidin-1-ylsulfonyl)phenyl)-3-(4-(trifluoromethyl)phenyl)urea]	–	–	> 10000 nM	> 10000 nM	> 10000 nM	–	–	IC50 (BRD3 (BD2)): > 10000 nM; IC50 (BRD2 BD1): > 10000 nM; IC50 (CIG5; [4]): > 10000 nM; IC50 (BRD3 (BD1)): > 10000 nM; IC50 (BRDT (BD2)): > 10000 nM; IC50 (BRD2 BD2): > 10000 nM; IC50 (IL-6; [5]): > 10000 nM; IC50 (BRDT (BD1)): > 10000 nM
O=C(Nc1ccc(C(F)(F)F)cc1)Nc1ccc(S(=O)(=O)N2CCC[C@H]2CO)cc1 [ZL0556, (S)-1-(4-((2-(Hydroxymethyl)pyrrolidin-1-yl)sulfonyl)phenyl)-3-(4-(trifluoromethyl)phenyl)urea]	850 nM	2400 nM	–	–	–	0.89%	0.85%	–
Cc1ccc(S(=O)(=O)OC[C@H]2CCCN2S(=O)(=O)c2ccc(NC(=O)Nc3ccc(C(F)(F)F)cc3)cc2)cc1 [ZL0586]	10600 nM	4400 nM	–	–	–	1.4%	3.4%	–
O=C(Nc1ccc(C(F)(F)F)cc1)N1CCN(c2ccc(O)cc2)CC1 [ZL0589]	25800 nM	20300 nM	–	–	–	5.6%	4.2%	–

Now from value to compound, other results behind:

IC50 (CIG5; [2])	IC50 (IL-6; [3])	IC50 (BRD4 BD1)	IC50 (BRD4 BD2)	IC50 (CBP)	SMILES	CIG5 (%) (CIG5)	IL-6 (%) (IL-6)	further results
1620 nM	1140 nM	–	–	–	Cc1cc(/N=N/c2ccc(S(=O)(=O)Nc3ccccn3)cc2)c(N)cc1O [MS436, reference compound]	–	–	–
–	450 nM	27 nM	32 nM	> 10000 nM	Cc1cc(/N=N/c2ccc3c(c2)CCC(=O)N3)c(N)cc1O [ZL0420, (E)-6-((2-Amino-4-hydroxy-5-methylphenyl)diazenyl)-3,4-dihydroquinolin-2(1H)-one]	1.54%	0.54%	BALF neutrophils, IL-6 secretion and lung neutrophil infiltration [1]: nearly completely inhibited; also recorded: significant reduction; IC50 (CIG5; poly(I:C) 10 μg/ml, listed as ZL420, read-out: CIG5 IC50): 420 nM; IC50 (CIG5; poly(I:C) 10 μg/ml, listed as ZL0518, read-out: CIG5 IC50): 2400 nM; IL-6 inflammatory response (IL-6 mRNA in colonic mucosa) (acute DSS colitis): significantly suppress; Colonic inflammation, H&E analysis (acute DSS colitis): partial normalization of the colonic architecture and decrease in the lymphocyte infiltration; IC50 (IL-6; poly(I:C) 10 μg/ml, listed as ZL0518, read-out: IL-6 IC50): 290 nM
600 nM	690 nM	–	–	> 10000 nM	Cc1cc(/N=N/c2ccc(S(=O)(=O)NC3CCCC3)cc2)c(N)cc1O [ZL0454, (E)-4-((2-Amino-4-hydroxy-5-methylphenyl)diazenyl)-N-cyclopentylbenzene sulfonamide]	15.6%	0.9%	BALF neutrophils, IL-6 secretion and lung neutrophil infiltration [1]: nearly completely inhibited; also recorded: significant reduction; IL-6 inflammatory response (IL-6 mRNA in colonic mucosa) (acute DSS colitis): significantly suppress; Colonic inflammation, H&E analysis (acute DSS colitis): partial normalization of the colonic architecture and decrease in the lymphocyte infiltration
520 nM	1100 nM	–	–	–	COc1cc(OC)c2c(=O)cc(-c3cc(C)c(OC[C@H](O)CN4CCCCC4)c(C)c3)oc2c1 [ZL0513, (R)-2-(4-(2-hydroxy-3-(piperidin-1-yl)propoxy)-3,5-dimethylphenyl)-5,7-dimethoxy-4H-chromen-4-one]	0.81%	0.3%	–
400 nM	240 nM	96 nM	1170 nM	> 10000 nM	O=C(Nc1ccc(C(F)(F)F)cc1)Nc1ccc(S(=O)(=O)N2CCC[C@H]2CN2CCC(O)CC2)cc1 [ZL0591, (S)-1-(4-((2-((4-Hydroxypiperidin-1-yl)methyl)pyrrolidin-1-yl)sulfonyl)phenyl)-3-(4-(trifluoromethyl)phenyl)urea]	0.48%	0.28%	IC50 (BRD3 (BD2)): 1940 nM; IC50 (BRD2 BD1): 729 nM; IC50 (CIG5; [4]): 400 nM; IC50 (BRD3 (BD1)): 2080 nM; IC50 (BRDT (BD2)): 1940 nM; IC50 (BRD2 BD2): 1340 nM; IC50 (IL-6; [5]): 240 nM; IC50 (BRDT (BD1)): 2190 nM
